Assay results from EP4818168A1, “FUSED RING COMPOUND, PHARMACEUTICAL COMPOSITION THEREOF AND USE THEREOF” (priority 2023, dated 2025).

Columns and labels:
[1] = system: H82 cells; test: cells; type: cell-based; conditions: Homo sapiens, NCI-H82; H82 cells, 4000 cells/well, CellTiter-Glo; read-out: IC50 in H82 Cells
Procedure, shortened: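 H82 cells in RPMI1640 + 10% FBS exposed to compound (0.1% DMSO final) for 6 days at 37 °C, 5% CO2. Viability read by CellTiter-Glo ATP luminescence, normalised to DMSO and medium controls; IC50 from nonlinear regression of the dose–survival curve.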

[2] = biological target: T1, AURKA (Homo sapiens, UniProt O14965); type: cell-based; conditions: Jurkat cells, 24 h, Table 2
T1 construct: endogenous in cells; host or cells: Jurkat cells
T1 sequence (O14965 1-403): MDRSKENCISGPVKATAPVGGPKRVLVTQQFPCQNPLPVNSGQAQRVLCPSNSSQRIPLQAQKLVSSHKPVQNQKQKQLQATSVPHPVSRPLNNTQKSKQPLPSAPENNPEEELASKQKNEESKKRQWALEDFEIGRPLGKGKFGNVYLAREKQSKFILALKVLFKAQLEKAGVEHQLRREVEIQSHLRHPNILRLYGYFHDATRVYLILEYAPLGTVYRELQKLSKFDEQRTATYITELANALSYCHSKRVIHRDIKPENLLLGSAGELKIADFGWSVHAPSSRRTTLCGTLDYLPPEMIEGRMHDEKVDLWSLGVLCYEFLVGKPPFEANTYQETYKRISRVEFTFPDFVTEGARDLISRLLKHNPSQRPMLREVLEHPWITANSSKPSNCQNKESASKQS
Procedure, shortened: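 Jurkat cells seeded at 1×10^6 cells/500 µL and treated with compound; lysates run on SDS-PAGE, blotted to nitrocellulose and probed overnight at 4°C for AURKA. Chemiluminescent or fluorescent band intensity fitted to a curve to give DC50 for protein degradation.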

Row | SMILES | IC50 [1] | Percentage of AURKA Degradation Induced by 100 nM Compound in Jurkat Cells [2] | Percentage of AURKA Degradation Induced by 1 µM Compound in Jurkat Cells [2]
1 | O=C1CCN(c2ccc(N3CCC(C(=O)N4CCN(c5ccc(Nc6ncc7c(n6)-c6ccc(Cl)cc6C(c6nccs6)=NC7)cc5)CC4)CC3)nc2)C(=O)N1 [Compound A320] | < 1 µM | +++ (Degradation > 70%) | +++ (Degradation > 70%)
2 | N#Cc1ccc2c(c1)C(c1nccs1)=NCc1cnc(Nc3ccc(N4CCN(C5CCN(c6ccc(N7CCC(=O)NC7=O)cn6)CC5)CC4=O)cc3)nc1-2 [Compound A322] | < 1 µM | +++ (Degradation > 70%) | +++ (Degradation > 70%)
3 | N#Cc1nc(N2CCN(C(=O)C3CCN(c4ccc(Nc5ncc6c(n5)-c5ccc(Cl)cc5C(c5c(F)cccc5F)=NC6)cc4)CC3)CC2)ccc1N1CCC(=O)NC1=O [Compound A323] | < 1 µM | +++ (Degradation > 70%) | +++ (Degradation > 70%)
4 | O=C1CCN(c2ccc(N3CCN(C(=O)[C@@H]4CN(c5ccc(Nc6ncc7c(n6)-c6ccc(Cl)cc6C(c6c(F)cccc6F)=NC7)cc5)CCO4)CC3)nc2)C(=O)N1 [Compound A324] | < 1 µM | +++ (Degradation > 70%) | +++ (Degradation > 70%)
5 | O=C1CCN(c2ccc(N3CCN(C(=O)[C@H]4CN(c5ccc(Nc6ncc7c(n6)-c6ccc(Cl)cc6C(c6c(F)cccc6F)=NC7)cc5)CCO4)CC3)nc2)C(=O)N1 [Compound A325] | < 1 µM | +++ (Degradation > 70%) | +++ (Degradation > 70%)
6 | N#Cc1cc(N2CCC(=O)NC2=O)cnc1N1CCN(C(=O)C2CCN(c3ccc(Nc4ncc5c(n4)-c4ccc(Cl)cc4C(c4c(F)cccc4F)=NC5)cc3)CC2)CC1 [Compound A326] | < 1 µM | +++ (Degradation > 70%) | +++ (Degradation > 70%)
7 | O=C1CCN(c2ccc(N3CC4(CC(N5CCN(c6ccc(Nc7ncc8c(n7)-c7ccc(Cl)cc7C(c7c(F)cccc7F)=NC8)cc6)C(=O)C5)CO4)C3)nc2)C(=O)N1 (stereo not drawn) [Compound A329] | < 1 µM | +++ (Degradation > 70%) | +++ (Degradation > 70%)
8 | O=C1CCN(c2ccc(N3CC4(CC(N5CCN(c6ccc(Nc7ncc8c(n7)-c7ccc(Cl)cc7C(c7nccs7)=NC8)cc6)C(=O)C5)CO4)C3)nc2)C(=O)N1 (stereo not drawn) [Compound A330] | < 1 µM | +++ (Degradation > 70%) | +++ (Degradation > 70%)
9 | NC(=O)c1cc(N2CCN(C(=O)C3CCN(c4ccc(Nc5ncc6c(n5)-c5ccc(Cl)cc5C(c5c(F)cccc5F)=NC6)cc4)CC3)CC2)ncc1N1CCC(=O)NC1=O [Compound A334] | < 1 µM | + (Degradation ≤ 30%) | + (Degradation ≤ 30%)
10 | O=C1CCN(c2ccc(N3CCC4(CC3)CC(N3CCN(c5ccc(Nc6ncc7c(n6)-c6ccc(Cl)cc6C(c6c(F)cccc6F)=NC7)cc5)C(=O)C3)CO4)nc2)C(=O)N1 (stereo not drawn) [Compound A336] | < 1 µM | +++ (Degradation > 70%) | +++ (Degradation > 70%)
11 | O=C1CCN(c2ccc(N3CCC4(CC3)CC(N3CCN(c5ccc(Nc6ncc7c(n6)-c6ccc(Cl)cc6C(c6nccs6)=NC7)cc5)C(=O)C3)CO4)nc2)C(=O)N1 (stereo not drawn) [Compound A337] | < 1 µM | +++ (Degradation > 70%) | +++ (Degradation > 70%)
12 | O=C1CCN(c2ccc(N3CCC4(CC3)CC(N3CCN(C56CC(Nc7ncc8c(n7)-c7ccc(Cl)cc7C(c7nccs7)=NC8)(C5)C6)C(=O)C3)CO4)nc2)C(=O)N1 (stereo not drawn) [Compound A339] | < 1 µM | +++ (Degradation > 70%) | +++ (Degradation > 70%)
